# Test system: IL-17A/A
# Experiment: IL-17A/A HEK-Blue cell assay
# Assay type: cell-based
# Conditions: HEK-Blue, 20 h, IL-17A/A inhibition, HEK-Blue IL-17A reporter cell line, IL17A/A 5 ng/mL, SEAP read at A630, read-out: AA IC50
# Protocol: The HEK-Blue IL-17A reporter cell line (Fisher #NC1408637) was used for cell-based IL-17A/A inhibition assays. Cells were grown and prepared for assays according to the manufacturer's instructions. This cell line consists of HEK 293 cells that were designed to expressed IL-17RA, IL-17RC, and the Act1 adapter molecule, the combination of which, when stimulated by IL-17A/A or IL17A/F activates a NFκB promoter and drives expression of the recombinant Secreted Alkaline Phosphatase (SEAP) gene. Media from the cells is then added to a development reagent (Quanti-Blue Substrate, Fisher #NC9711613), and read at A630.
# Compounds were dispensed in DMSO to an empty clear 384-well tissue culture plate in a titration ranging from 10 μM to 27 pM, with DMSO added to every well to a final concentration of 0.1%. Cells were then added to the plate (45 μL/well at a concentration of 280,000 cells/mL). IL17A/A (Genscript #Z03228) or IL17A/F (R&D Systems) was added to the plate to a final concentration of 5 ng/mL and a final well volume of 50 μL. The cells, compound, and IL-17A/A or IL17A/F were then incubated for 20 hours before media was removed for SEAP analysis. The resulting inhibition curve was then analyzed using Dotmatics' integrated 4-parameter fit screening protocol to generate IC50 values.
row,Compound,IC50 [nM]
1,"O=C(N[C@H](c1cn2nc(C[C@H]3C[C@@H](C(F)(F)F)CNC3=O)c(C3CCOC3)cc2n1)C1CCC(F)(F)CC1)c1nonc1C1CC1 (single isomer, unassigned) [Compound 45]",< 100
2,CCn1nccc1C(=O)N[C@H](c1cn2nc(C[C@H]3C[C@@H](C(F)(F)F)CNC3=O)c(N3CCOCC3)cc2n1)[C@H]1CCCC(F)(F)C1 [Compound 25],< 100
3,O=C(N[C@H](c1cn2nc(C[C@H]3C[C@@H](C(F)(F)F)CNC3=O)c(C3CCOCC3)cc2n1)C1CCC(F)(F)CC1)c1nonc1C1CC1 [Compound 54],< 100
4,O=C(N[C@H](c1cn2nc(C[C@H]3C[C@@H](C(F)(F)F)CNC3=O)c(C3CCOC3)cc2n1)[C@@H]1CCCC(F)(F)C1)c1nonc1C1CC1 (stereo partly drawn) [Compound 70],< 100
5,CCn1nccc1C(=O)N[C@H](c1cn2nc(C[C@H]3C[C@@H](C(F)(F)F)CNC3=O)c(C3COC3)cc2n1)C1CCC(F)(F)CC1 [Compound 5],< 100
6,CCn1nccc1C(=O)N[C@H](c1cn2nc(C[C@H]3C[C@@H](C(F)(F)F)CNC3=O)c(C3CCCOC3)cc2n1)[C@H]1CCCC(F)(F)C1 (stereo partly drawn) [Compound 63],< 100
7,O=C(N[C@H](c1cn2nc(C[C@H]3C[C@@H](C(F)(F)F)CNC3=O)c(N3CCOCC3)cc2n1)[C@H]1CCCC(F)(F)C1)c1nonc1C1CC1 [Compound 29],< 100
8,CCn1nccc1C(=O)N[C@H](c1cn2nc(C[C@H]3C[C@@H](C(F)(F)F)CNC3=O)c(N3CCOCC3)cc2n1)C1CCC(F)(F)CC1 [Compound 37],< 100
9,CC(C)n1nccc1C(=O)N[C@H](c1cn2nc(C[C@H]3C[C@@H](C(F)(F)F)CNC3=O)c(N3CCOCC3)cc2n1)[C@H]1CCCC(F)(F)C1 [Compound 27],< 100
10,CCn1nccc1C(=O)N[C@H](c1cn2nc(C[C@H]3C[C@@H](C(F)(F)F)CNC3=O)c(N3CCN(C)C4(CC4)C3)cc2n1)C1CCC(F)(F)CC1 [Compound 82],< 100
11,CCn1nccc1C(=O)N[C@H](c1cn2nc(C[C@H]3C[C@@H](C(F)(F)F)CNC3=O)c(N3CC4(CCCOC4)C3)cc2n1)C1CCC(F)(F)CC1 [Compound 47],< 100
12,O=C(N[C@H](c1cn2nc(C[C@@H]3C[C@H](C(F)(F)F)CNC3=O)c(N3CCOCC3)cc2n1)C1CCC(F)(F)CC1)c1nonc1C1CC1 [Compound 39],> 1000
13,CCn1nccc1C(=O)N[C@H](c1cn2nc(C[C@H]3C[C@@H](C(F)(F)F)CNC3=O)c(C3CCOC3)cc2n1)[C@@H]1CCCC(F)(F)C1 (stereo partly drawn) [Compound 68],< 100
14,CCn1nccc1C(=O)N[C@H](c1cn2nc(C[C@H]3C[C@@H](C(F)(F)F)CNC3=O)c(C3CCCO3)cc2n1)C1CCC(F)(F)CC1 (stereo partly drawn) [Compound 83],< 100
15,O=C(N[C@H](c1cn2nc(C[C@H]3C[C@@H](C(F)(F)F)CNC3=O)c([C@H]3CCOC3)cc2n1)C1CCC(F)(F)CC1)c1nonc1C1CC1 [Compound 44],< 100
16,O=C(N[C@H](c1cn2nc(C[C@H]3C[C@@H](C(F)(F)F)CNC3=O)c(N3CCOCC3)cc2n1)C1CCC(F)(F)CC1)c1nonc1C1CC1 [Compound 16],< 100
17,O=C(N[C@H](c1cn2nc(C[C@@H]3C[C@@H](C(F)(F)F)CNC3=O)c(N3CCOCC3)cc2n1)C1CCC(F)(F)CC1)c1nonc1C1CC1 [Compound 17],100 to 1000
18,CCn1nccc1C(=O)N[C@H](c1cn2nc(C[C@H]3C[C@@H](C(F)(F)F)CNC3=O)c(N3CC4CCC(C3)O4)cc2n1)C1CCC(F)(F)CC1 [Compound 50],< 100

# Now from value to compound:
row,IC50 [nM],Compound
1,< 100,"CCn1nccc1C(=O)N[C@H](c1cn2nc(C[C@H]3C[C@@H](C(F)(F)F)CNC3=O)c(CNC)cc2n1)C1CCC(F)(F)CC1 [Compound 112, N—((S)-(4,4-difluorocyclohexyl)(7-((methylamino)methyl)-6-(((3R,5R)-2-oxo-5-(trifluoromethyl)piperidin-3-yl)methyl)imidazo[1,2-b]pyridazin-2-yl)methyl)-1-ethyl-1H-pyrazole-5-carboxamide]"
2,< 100,"CCn1nccc1C(=O)N[C@H](c1cn2nc(C[C@H]3C[C@@H](C(F)(F)F)CNC3=O)c(CN3CCCC3)cc2n1)C1CCC(F)(F)CC1 [Compound 106, N—((S)-(4,4-difluorocyclohexyl)(6-(((3R,5R)-2-oxo-5-(trifluoromethyl)piperidin-3-yl)methyl)-7-(pyrrolidin-1-ylmethyl)imidazo[1,2-b]pyridazin-2-yl)methyl)-1-ethyl-1H-pyrazole-5-carboxamide]"
3,< 100,"CCn1nccc1C(=O)N[C@H](c1cn2nc(C[C@H]3C[C@@H](C(F)(F)F)CNC3=O)c(CN3CCCCC3)cc2n1)C1CCC(F)(F)CC1 [Compound 107, N—((S)-(4,4-difluorocyclohexyl)(6-(((3R,5R)-2-oxo-5-(trifluoromethyl)piperidin-3-yl)methyl)-7-(piperidin-1-ylmethyl)imidazo[1,2-b]pyridazin-2-yl)methyl)-1-ethyl-1H-pyrazole-5-carboxamide]"
4,< 100,"CCn1nccc1C(=O)N[C@H](c1cn2nc(C[C@H]3C[C@@H](C(F)(F)F)CNC3=O)c(CN(CC(F)(F)F)C3CC3)cc2n1)C1CCC(F)(F)CC1 [Compound 117, N—((S)-(7-((cyclopropyl(2,2,2-trifluoroethyl)amino)methyl)-6-(((3R,5R)-2-oxo-5-(trifluoromethyl)piperidin-3-yl)methyl)imidazo[1,2-b]pyridazin-2-yl)(4,4-difluorocyclohexyl)methyl)-1-ethyl-/H-pyrazole-5-carboxamide]"
5,< 100,"CCn1nccc1C(=O)N[C@H](c1cn2nc(C[C@H]3C[C@@H](C(F)(F)F)CNC3=O)c([C@@H](C)N(C)CC(F)(F)F)cc2n1)C1CCC(F)(F)CC1 [Compound 110, N-((1S)-(4,4-difluorocyclohexyl)(7-(1-(methyl(2,2,2-trifluoroethyl)amino)ethyl)-6-(((3R,5R)-2-oxo-5-(trifluoromethyl)piperidin-3-yl)methyl)imidazo[1,2-b]pyridazin-2-yl)methyl)-1-ethyl-1H-pyrazole-5-carboxamide]"
6,100 to 1000,CCn1nccc1C(=O)N[C@H](c1cn2nc(C[C@H]3C[C@@H](C(F)(F)F)CNC3=O)c(N3CC(O)C3)cc2n1)C1CCC(F)(F)CC1 [Compound 98]
7,100 to 1000,"CCn1nccc1C(=O)N[C@H](c1cn2nc(C[C@H]3C[C@@H](C)CNC3=O)c(C3CCOCC3)cc2n1)C1CCC(F)(F)CC1 [Compound 100, N—((1S)-(4,4-difluorocyclohexyl)(6-(((5R)-5-methyl-2-oxopiperidin-3-yl)methyl)-7-(tetrahydro-2H-pyran-4-yl)imidazo[1,2-b]pyridazin-2-yl)methyl)-1-ethyl-1H-pyrazole-5-carboxamide]"
8,< 100,O=C(N[C@H](c1cn2nc(C[C@H]3C[C@@H](C(F)(F)F)CNC3=O)c(C3CCOCC3)cc2n1)C1CCC(F)(F)CC1)c1ccnn1C1CC1 [Compound 91]
9,< 100,"CCn1nccc1C(=O)N[C@H](c1cn2nc(C[C@H]3C[C@@H](C(F)(F)F)CNC3=O)c(CN(C)C3COC3)cc2n1)C1CCC(F)(F)CC1 [Compound 114, N—((S)-(4,4-difluorocyclohexyl)(7-((methyl(oxetan-3-yl)amino)methyl)-6-(((3R,5R)-2-oxo-5-(trifluoromethyl)piperidin-3-yl)methyl)imidazo[1,2-b]pyridazin-2-yl)methyl)-1-ethyl-1H-pyrazole-5-carboxamide]"
10,< 100,CC(C)n1ncnc1C(=O)N[C@H](c1cn2nc(C[C@H]3C[C@@H](C(F)(F)F)CNC3=O)c(C3CCOCC3)cc2n1)C1CCC(F)(F)CC1 [Compound 90]
11,100 to 1000,O=C(N[C@H](c1cn2nc(C[C@H]3C[C@@H](C(F)(F)F)CNC3=O)c(C3CCOCC3)cc2n1)C1CCC(F)(F)CC1)c1ccnn1C1CC1(F)F (stereo partly drawn) [Compound 92]
12,< 100,"CCn1nccc1C(=O)N[C@H](c1cn2nc(C[C@H]3C[C@@H](C(F)(F)F)CNC3=O)c(N3CCN(CCOC)CC3)cc2n1)C1CCC(F)(F)CC1 [Compound 99, N—((S)-(4,4-difluorocyclohexyl)(7-(4-(2-methoxyethyl)piperazin-1-yl)-6-(((3R,5R)-2-oxo-5-(trifluoromethyl)piperidin-3-yl)methyl)imidazo[1,2-b]pyridazin-2-yl)methyl)-1-ethyl-1H-pyrazole-5-carboxamide]"

# Same assay, conditions: IL-17A/A inhibition, HEK-Blue IL-17A reporter cell line, IL17A/A 5 ng/mL, 20 hours, SEAP read at A630; read-out: AA IC50
row,Compound,IC50 [nM]
1,CCn1nccc1C(=O)N[C@H](c1cn2nc(C[C@H]3C[C@@H](C(F)(F)F)CNC3=O)c(C3CCCOC3)cc2n1)C1CCC(F)(F)CC1 (stereo partly drawn) [Compound 13],< 100
2,O=C(N[C@H](c1cn2nc(C[C@H]3C[C@@H](C(F)(F)F)CNC3=O)c(C3CCOC3)cc2n1)[C@@H]1CCCC(F)(F)C1)c1nonc1C1CC1 (stereo partly drawn) [Compound 74],< 100
3,CCn1nccc1C(=O)N[C@H](c1cn2nc(C[C@H]3C[C@@H](C(F)(F)F)CNC3=O)c(C3CCN(C)C3)cc2n1)C1CCC(F)(F)CC1 (stereo partly drawn) [Compound 62],100 to 1000
4,CCn1nccc1C(=O)N[C@H](c1cn2nc(C[C@H]3C[C@@H](C(F)(F)F)CNC3=O)c(N3CCC(OC)C3)cc2n1)C1CCC(F)(F)CC1 (stereo partly drawn) [Compound 78],< 100

# Next, values leading:
row,IC50 [nM],Compound
1,< 100,CCn1nccc1C(=O)N[C@H](c1cn2nc(C[C@H]3C[C@@H](C(F)(F)F)CNC3=O)c(C3COCCO3)cc2n1)C1CCC(F)(F)CC1 (stereo partly drawn) [Compound 95]
2,< 100,CCn1nccc1C(=O)N[C@H](c1cn2nc(C[C@H]3C[C@@H](C(F)(F)F)CNC3=O)c(C3CCCCO3)cc2n1)C1CCC(F)(F)CC1 (stereo partly drawn) [Compound 85]

# From US20260265259A1, “SUBSTITUTED 6-IMIDAZOPYRIDAZINE IL-17A MODULATORS AND USES THEREOF” (DICE ALPHA, INC., priority 2023, published 2026)
